Measurements reported in patent US9845327B2, “Treatment of proteinopathies” (THE GENERAL HOSPITAL CORPORATION, priority 2011, dated 2017).

Assays:
α-synuclein = α-synuclein levels by western blot in human midbrain iPS dopamine neurons; type: cell-based
Text: In this Example, it was investigated whether enhancement of lysosomal enzyme trafficking through stimulation of the secretory pathway would result in increased lysosomal function and reduction of α-synuclein. Therefore, in this Example the small GTPase Rab1a polypeptide was overexpressed by lentiviral infection in iPS neurons to stimulate enzyme trafficking. Rab1a polypeptide has been established to function specifically at the ER-Golgi step of the secretory pathway (Duvernay et al., Cell Signal 17: 1457, 2005). The effect of Rab1a polypeptide was determined in human iPS dopamine neurons derived from reprogrammed fibroblasts of a PD patient (Coriell line ND27760). These cells harbor a triplication mutation in the genomic region containing SNCA which encodes for α-synuclein, leading to overexpression of the protein and lysosomal trafficking deficits. […] Further in this Example, it was determined if Rab1a polypeptide enhances lysosomal function by monitoring cathepsin B activity.
(§1) It was also shown in this Example that treatment with the GCase polypeptide activator increased the levels of total GCase protein and increased the post-ER forms, indicating enhancement of flux to the lysosome (FIG. 19B).
(§2) Most materials for SDS-PAGE were obtained from Invitrogen (NuPAGE system). Protein lysates were boiled in sample buffer (20 mM Tris, 1% (v/v) glycerol, 180 mM β-mercaptoethanol, 0.003% (w/v) bromophenol blue, 2% (w/v) SDS, pH 6.8), resolved on 4%-12% Bis-Tris polyacrylamide precast gels in a MOPS-SDS running buffer, or 4%-12% Tris-Glycine gels. 10% Tris-Glycine gels were utilized for some GCase polypeptide western blot's (FIGS. 13B, 13D, and 13E, and FIGS. 14C and 14F). […] Blots were blocked in Odyssey blocking buffer (Li-Cor biosciences) containing 0.05% Tween, or 5% non-fat dry milk in TBS-T 0.2%, followed by incubation with primary antibodies (see above for dilutions), and detected with anti-mouse or -rabbit IgG conjugated to IRDye 680 or 800 (1:10,000, Li-Cor biosciences). […] Any nonspecific bands detected were not included in densitometric analyses. […]

GCase polypeptide = target: T1, GCase polypeptide (Homo sapiens, UniProt P04062); assay: GCase polypeptide levels and post-ER forms by western blot in human iPS dopamine neurons; type: cell-based; settings: human midbrain iPS dopamine neurons
T1 construct: endogenous in cells; host or cells: human iPS-derived midbrain dopamine neurons (healthy control; PD patient with SNCA triplication, Coriell ND27760)
T1 sequence (P04062 40-536): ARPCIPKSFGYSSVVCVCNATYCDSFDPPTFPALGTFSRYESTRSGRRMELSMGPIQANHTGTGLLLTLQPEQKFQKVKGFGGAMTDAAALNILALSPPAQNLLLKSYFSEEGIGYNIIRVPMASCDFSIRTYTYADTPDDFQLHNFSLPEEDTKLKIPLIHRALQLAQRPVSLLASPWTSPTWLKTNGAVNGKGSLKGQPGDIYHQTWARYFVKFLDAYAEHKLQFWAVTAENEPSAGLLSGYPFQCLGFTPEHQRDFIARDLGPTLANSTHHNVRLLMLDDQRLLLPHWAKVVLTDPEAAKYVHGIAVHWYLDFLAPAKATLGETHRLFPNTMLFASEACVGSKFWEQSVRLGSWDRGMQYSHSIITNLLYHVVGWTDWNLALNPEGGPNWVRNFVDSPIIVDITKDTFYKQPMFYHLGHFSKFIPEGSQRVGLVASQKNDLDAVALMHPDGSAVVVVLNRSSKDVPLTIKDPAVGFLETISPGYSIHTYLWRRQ
Protocol: In this Example, human dopamine neurons generated from iPS cells of an unaffected control were treated with a pharmacological chaperone activator of GCase polypeptide, isofagomine (IFG). […] Treatment of wild-type neurons with 100 μM IFG for 5 days followed by 1 day wash-out increased the levels of GCase polypeptide (FIGS. 15A and 15B). This increase was likely due to the fact that wild-type GCase polypeptide was occasionally misfolded in the ER and degraded (about 30% of the total made in the ER), and IFG appeared to also stabilize the wild-type misfolded forms.
as §1
In this Example, the effect of combining the GCase polypeptide pharmacological chaperone IFG with the antioxidant n-acetyl-cysteine (NAC) on GCase polypeptide maturation in PD iPS neurons was tested. Neurons were treated with either IFG, NAC, or IFG and NAC together, and GCase polypeptide maturation was analyzed by western blot.
as §2

Hela cells = assay: Lysosomal proteolysis by radioactive pulse-chase in transfected Hela cells; type: cell-based
Protocol: Further in this Example, it was assessed whether GCase polypeptide overexpression had the ability to directly enhance lysosomal proteolysis in a non-neuronal cell line. Hela cells were transfected with a myc-tagged GCase polypeptide expression construct and lysosomal proteolysis was assessed by radioactive pulse-chase (FIG. 17A). […] This effect was also confirmed through a different assay, by measuring the effect of GCase polypeptide overexpression on the activity of the lysosomal protease cathepsin B. A cell-permeable fluorescent-tagged cathepsin B substrate (MAGIC RED cathepsin detection kit, Immunochemistry Technologies) was added to transfected Hela cells, and degradation of this substrate was determined in living cells after substrate wash-out.

primary cortical neurons = assay: Proteolysis of long-lived proteins by radioactive pulse-chase in primary cortical neurons; type: cell-based, mouse; settings: added to GCase polypeptide KD
Protocol: In this Example, a test was conducted to determine whether GCase polypeptide KD affects a lysosomal degradation pathway. In this test, neurons were treated with the well-established lysosomal inhibitors ammonium chloride (NH4Cl) and leupeptin.
Proteolysis of long-lived proteins was determined by radioactive pulse-chase using ^3H-leucine. This procedure was performed as described previously (Kaushik et al. Methods Enzymol. 452: 297, 2009). Briefly, cortical cells were grown in 24 well clusters seeded at 33000 cells/well and infected at moi 3 with scrb or GCase polypeptide shRNA expressing lentiviral vectors. On dpi 4, ^3H-leucine (PerkinElmer, # NET460A001 MC, final 5 μCi/ml) was added in standard neurobasal medium containing B27 for 2 days to trace label proteins. […] Samples were centrifuged at 20,000×g for 20 min, 4° C., and the radioactivity was measured in 5 ml of scintillation cocktail using a Beckman LS 1701 liquid scintillation counter (Beckman Instruments). Precipitated protein pellets were extracted in 200 μl of Na deoxycholate, 0.1 M NaOH, and radioactivity was determined. Percent proteolysis was calculated as described in detail elsewhere (Kaushik et al. Methods Enzymol. 452: 297, 2009). […]

[1] = target: T2, recombinant human α-synuclein (Homo sapiens, UniProt P37840); assay: In vitro α-synuclein fibril (amyloid) formation with lipid dispersions, thioflavin T fluorescence
T2 construct: made in house; host or cells: E. coli BL21 CodonPlus (DE3)-RIL
Protocol: In this Example, lipid dispersions made of mixtures of purified GlcCer and brain phosphatidylcholines (PCs) were incubated with α-synuclein at physiological conditions (pH 7.4, 37° C.). Electron microscopy (EM) analysis indicated the formation of tubules consisting of polymerized GlcCer (FIGS. 7G-7I), similar to those previously observed in Gaucher cells in patients and mouse models (Lee, PNAS 61: 484, 1968).
However, increasing the amount of GlcCer to 75% while keeping the total lipid amount constant (PC25/GlcCer75) altered the kinetic profile of α-synuclein fibril formation by delaying the formation of insoluble thioT-positive α-synuclein fibrils, extending the lag time from 2 to 16 hr (FIG. 7A).
The fibril assembly phase PC25/GlcCer75-containing reactions occurred between 16 and 24 hr, compared to control reactions where the assembly occurred between 2 and 24 hr. […] The aggregated species formed at the end stage of the fibril-forming reaction, after assembly was completed and equilibrium was reached (at 28 hr) were further analyzed. […]
α-synuclein was expressed in E. coli and purified by boiling followed by HPLC as described previously (Mazzulli et al 2007). […] Fluorescence (ex=430 nm, em=510, 0.1 s) was determined in a Wallac Victor^2 plate reader (Perkin Elmer) in black FluorNunc Maxisorp 96 well plates (Nunc, #475515). […]

[2] = target: T2, recombinant human α-synuclein; assay: In vitro soluble α-synuclein oligomers and sedimentation with lipids (SEC/SDS-PAGE, ANS, 100,000 x g centrifugation)
Text: Therefore, in this Example it was hypothesized that the delay in fibril formation observed in vitro resulted from a kinetic stabilization of a soluble oligomeric intermediate species. To test this, the nature of the species that form during the lag phase (between 1 and 16 hr) of PC25/GlcCer75-containing reactions were characterized by analytic biochemical methods. Soluble portions of the reaction mixtures were obtained by centrifugation at 100,000×g and analyzed at 1 and 5 hr after the addition of lipids by SEC/SDS-PAGE. […] Further, detected were increased amounts of soluble SDS and heat-stable dimers (36 kDa), trimers (54 kDa), and higher oligomeric species eluting as 36-27 Å-sized particles in PC25/GlcCer75-containing reactions compared to controls (FIG. 7B). […] Syn505 also detected α-synuclein directly on GlcCer tubular structures (FIG. 7G, i and ii) but not on GlcCer-alone reactions (FIG. 7I), indicating an association of misfolded α-synuclein with GlcCer. α-synuclein-GlcCer reactions were further analyzed by 8-anilino-1-napthalene sulfonate (ANS) binding, a fluorescent dye used to detect aggregation-prone conformational intermediates (Stryer, 1965). […]
Oligomers were also detected by 8-anilino-1-napthalene sulfonate (ANS) (Acros #401220050). […]

For C#Cc1ccc(NC(=O)c2cnn3c(C)cc(C)nc23)cc1 [NCGC00188758], the α-synuclein protein levels (α-synuclein; neurons from a PD patient with triplication of the SNCA genomic region) was “dose-dependent decrease”, the α-synuclein protein levels (α-synuclein; neurons from healthy unaffected controls) was “dose-dependent decrease” and the “levels of total GCase protein” value (GCase polypeptide) was “increased”. For the same compound, the “post-ER forms of GCase” value (GCase polypeptide) was “increased”.

For Cl.N [ammonium chloride], the “effect of lysosomal inhibitors on the proteolysis increase by GCase polypeptide overexpression” value (Hela cells) was “completely reversed” and the “proteolysis of long-lived proteins in GCase polypeptide shRNA-treated cells” value (primary cortical neurons) was “did not additively inhibit”.

With Glucosyl (β) Ceramide [GlcCer] the “maximal thioT signal at the end stages, fold higher compared to control reactions” value ([1]; pH 5.0) was 2- to 3 fold, the α-synuclein fibril formation ([1]; physiological conditions, pH 7.4, 37° C.) was “no effect” and the “amount of pelletable α-synuclein protein (100,000×g sedimentation)” value ([2]; pH 5.0, 28 hr) was “no effect”.

With “monosialotetrahexosylganglioside [ganglioside GM1]” the “soluble α-synuclein oligomers compared to α-synuclein alone” value ([2]; pH 5.0, 15 hr incubation, 10:1 lipid:protein ratio) was “dramatic stabilization and elevation”.
